Measurements from ChEMBL document CHEMBL4359820, “Enrichment of novel quinazoline derivatives with high antitumor activity in mitochondria tracked by its self-fluorescence” (Eur J Med Chem, 2019).
Calls of active or inactive are those of the source. The calls are words filed in the database; no cut-off is given here.

Tests used:
NCI-H1975 = type: functional, cell-based; conditions: Homo sapiens, NCI-H1975, 72 h
SW480 = type: functional, cell-based; conditions: Homo sapiens, SW480, 72 h
A549 [1] = type: functional, cell-based; conditions: Homo sapiens, A549, 72 h
A-431 = experiment: cells; conditions: Homo sapiens, A-431, 72 h
Description: Antiproliferative activity against human A431 cells incubated for 72 hrs by MTT assay

[2] = target: Epidermal growth factor receptor (Homo sapiens) (UniProt P00533); conditions: HEK293, at 50 nM
Description: Inhibition of human recombinant His-tagged wild type EGFR expressed in HEK293 cells at 50 nM using poly[Glu:Tyr] (4:1) as substrate incubated for 60 mins by ELISA relative to control

A549 [3] = experiment: Induction of apoptosis in human A549 cells assessed as viable cells at 20 uM incubated for 48 hrs by annexin V -FITC and PI staining based flow cytometric analysis (reference value: 94.56%); type: functional; conditions: A549, 48 h, read-out: Activity
A549 [4] = experiment: Induction of apoptosis in human A549 cells assessed as early apoptotic cells at 20 uM incubated for 48 hrs by annexin V -FITC and PI staining based flow cytometric analysis (reference value: 2.93%); type: functional
A549 [5] = experiment: Induction of apoptosis in human A549 cells assessed as late apoptotic cells at 20 uM incubated for 48 hrs by annexin V -FITC and PI staining based flow cytometric analysis (reference value: 2.24%); type: functional
A549 [6] = experiment: Induction of apoptosis in human A549 cells assessed as necrotic cells at 20 uM incubated for 48 hrs by annexin V -FITC and PI staining based flow cytometric analysis (reference value: 0.27%); type: functional
A549 [7] = experiment: Induction of cell cycle arrest in human A549 cells assessed as accumulation at G0/G1 phase at 20 uM incubated for 48 hrs by PI staining based flow cytometric analysis (reference value: 51.73%); type: functional
A549 [8] = experiment: Induction of cell cycle arrest in human A549 cells assessed as accumulation at S phase at 20 uM incubated for 48 hrs by PI staining based flow cytometric analysis (reference value: 33.67%); type: functional
A549 [9] = experiment: Induction of cell cycle arrest in human A549 cells assessed as accumulation at G2/M phase at 20 uM incubated for 48 hrs by PI staining based flow cytometric analysis (reference value: 14.36%); type: functional
[10] = target: Epidermal growth factor receptor (Homo sapiens) (UniProt P00533); experiment: Inhibition of EGF-induced EGFR phosphorylation at Tyr-residue in human A549 cells at 0.4 to 10 uM preincubated for 2 hrs followed by EGF treatment and measured after 10 mins by Western blot analysis; type: cell-based
[11] = target: Epidermal growth factor receptor (Homo sapiens) (UniProt P00533); experiment: Inhibition of EGF-induced EGFR phosphorylation at Y1068 in human A549 cells at 0.4 to 10 uM preincubated for 2 hrs followed by EGF treatment and measured after 10 mins by Western blot analysis; type: cell-based
[12] = target: Epidermal growth factor receptor (Homo sapiens) (UniProt P00533); experiment: Inhibition of EGF-induced EGFR phosphorylation at Y992 in human A549 cells at 0.4 to 10 uM preincubated for 2 hrs followed by EGF treatment and measured after 10 mins by Western blot analysis; type: cell-based
[13] = target: Epidermal growth factor receptor (Homo sapiens) (UniProt P00533); experiment: Inhibition of EGF-induced EGFR phosphorylation at Tyr-residue in human A431 cells at 0.2 to 5 uM preincubated for 2 hrs followed by EGF treatment and measured after 10 mins by Western blot analysis; type: cell-based
[14] = target: Epidermal growth factor receptor (Homo sapiens) (UniProt P00533); experiment: Inhibition of EGF-induced EGFR phosphorylation at Y1068 in human A431 cells at 0.2 to 5 uM preincubated for 2 hrs followed by EGF treatment and measured after 10 mins by Western blot analysis; type: cell-based
[15] = target: Epidermal growth factor receptor (Homo sapiens) (UniProt P00533); experiment: Inhibition of EGF-induced EGFR phosphorylation at Y992 in human A431 cells at 0.2 to 5 uM preincubated for 2 hrs followed by EGF treatment and measured after 10 mins by Western blot analysis; type: cell-based
[16] = Drug uptake in human A549 cells at 5 uM incubated for 2 hrs by fluorescence microscopic method; type: ADME, cell-based; conditions: a549, 2 h
[17] = Drug localization in mitochondria of human A549 cells at 5 uM incubated for 30 mins by Mitotracker red staining based confocal microscopic method; type: ADME; conditions: a549, 0.5 h
[18] = Drug localization in mitochondria of human A549 cells at 5 uM incubated for 30 mins by Mitotracker green staining based confocal microscopic method; type: ADME; conditions: a549, 0.5 h
[19] = Drug localization in lysosome of human A549 cells at 5 uM incubated for 30 mins by Lysotracker red staining based confocal microscopic method; type: ADME, subcellular; conditions: a549, 0.5 h
[20] = Drug uptake in human A549 cells incubated for 2 hrs by FACS analysis; type: ADME, cell-based; conditions: a549, 2 h
[21] = Drug uptake in human A549 cells at 1 uM incubated for 2 hrs by FACS analysis (reference value: 0%); type: ADME, cell-based; conditions: a549, 2 h
[22] = Drug uptake in human A549 cells at 5 uM incubated for 2 hrs by FACS analysis (reference value: 0%); type: ADME, cell-based; conditions: a549, 2 h
[23] = Drug uptake in human A549 cells at 25 uM incubated for 2 hrs by FACS analysis (reference value: 0%); type: ADME, cell-based; conditions: a549, 2 h
HCC827 = type: functional, cell-based; conditions: Homo sapiens, HCC827, 72 h
A549 [24] = experiment: Inhibition of cell migration in CM-dil-labelled human A549 cells xenografted in 48 hrs post-fertilization zebrafish embryos at 15 uM incubated for 48 hrs by confocal microscopic method; type: functional, cell-based
A549 [25] = experiment: Induction of cell cycle arrest in human A549 cells assessed as accumulation at G0/G1 phase at 15 uM incubated for 48 hrs by PI staining based flow cytometric analysis (reference value: 51.73%); type: functional
A549 [26] = experiment: Induction of cell cycle arrest in human A549 cells assessed as accumulation at S phase at 15 uM incubated for 48 hrs by PI staining based flow cytometric analysis (reference value: 33.67%); type: functional
A549 [27] = experiment: Induction of cell cycle arrest in human A549 cells assessed as accumulation at G2/M phase at 15 uM incubated for 48 hrs by PI staining based flow cytometric analysis (reference value: 14.36%); type: functional

Sequence of Epidermal growth factor receptor (Homo sapiens) (P00533 whole entry): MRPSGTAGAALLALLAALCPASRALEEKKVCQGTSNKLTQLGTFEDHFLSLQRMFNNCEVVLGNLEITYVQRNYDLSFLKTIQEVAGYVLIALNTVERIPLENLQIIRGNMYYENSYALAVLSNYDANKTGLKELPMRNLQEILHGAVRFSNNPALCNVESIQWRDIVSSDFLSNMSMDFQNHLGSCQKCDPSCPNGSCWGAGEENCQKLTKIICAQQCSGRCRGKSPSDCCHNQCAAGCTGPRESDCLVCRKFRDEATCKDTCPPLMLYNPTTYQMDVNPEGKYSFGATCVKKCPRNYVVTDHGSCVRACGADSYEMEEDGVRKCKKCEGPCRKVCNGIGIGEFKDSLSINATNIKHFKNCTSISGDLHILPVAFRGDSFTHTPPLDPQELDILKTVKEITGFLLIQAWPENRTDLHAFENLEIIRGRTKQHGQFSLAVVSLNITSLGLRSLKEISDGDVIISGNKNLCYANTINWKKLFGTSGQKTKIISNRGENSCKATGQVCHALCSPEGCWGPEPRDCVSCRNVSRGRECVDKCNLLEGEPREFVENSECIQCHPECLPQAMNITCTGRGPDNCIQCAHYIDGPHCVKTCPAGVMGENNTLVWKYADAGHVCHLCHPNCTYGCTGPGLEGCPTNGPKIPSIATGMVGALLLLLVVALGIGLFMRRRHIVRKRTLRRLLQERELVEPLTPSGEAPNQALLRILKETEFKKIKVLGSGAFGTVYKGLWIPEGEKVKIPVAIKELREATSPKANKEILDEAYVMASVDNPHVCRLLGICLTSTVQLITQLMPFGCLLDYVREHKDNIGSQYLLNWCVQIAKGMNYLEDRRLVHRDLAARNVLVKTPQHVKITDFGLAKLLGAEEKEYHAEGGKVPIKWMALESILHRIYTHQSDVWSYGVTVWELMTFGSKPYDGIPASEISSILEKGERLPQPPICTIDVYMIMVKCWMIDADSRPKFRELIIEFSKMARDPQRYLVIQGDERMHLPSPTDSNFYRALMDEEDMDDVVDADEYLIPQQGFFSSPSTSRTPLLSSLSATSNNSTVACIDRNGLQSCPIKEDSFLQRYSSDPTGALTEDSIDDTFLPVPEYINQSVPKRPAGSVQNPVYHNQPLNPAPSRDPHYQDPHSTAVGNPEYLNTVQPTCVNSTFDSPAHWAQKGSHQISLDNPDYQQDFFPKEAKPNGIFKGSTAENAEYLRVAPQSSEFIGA

Row | Structure (SMILES) | IC50 (NCI-H1975) [µM] | IC50 (SW480) [µM] | IC50 (A549 [1]) [µM] | IC50 (A-431) [µM] | inhibition [2] [%] | other results
1 | C#Cc1cccc(Nc2ncnc3cc(N4CCOCC4)c(F)cc23)c1 | > 100 | > 100 | > 100 | > 100 | – | –
2 | COc1cc2ncnc(Nc3ccc(F)c(Cl)c3)c2cc1OCCCN1CCOCC1 [GEFITINIB] | – | – | – | – | – | viability at 20 µM (A549 [3]): 83.3%; Activity (A549 [4]): 7.93%; Activity (A549 [5]): 7.86%; Activity (A549 [6]): 0.95%; Activity (A549 [7]): 76.94%; Activity (A549 [8]): 16.98%; Activity (A549 [9]): 5.95%
3 | C/C=C/c1ccc(Nc2ncnc3cc(N4CCNCC4)c(F)cc23)cc1 | – | – | – | – | < 20 | –
4 | Fc1cccc(COc2ccc(Nc3ncnc4cc(N5CCOCC5)c(F)cc34)cc2Cl)c1 | 52.6 | 57.5 | 71.8 | 10.1 | – | –
5 | C#Cc1cccc(Nc2ncnc3cc(N4CCNCC4)c(F)cc23)c1 | – | – | – | – | < 20 | –
6 | Fc1ccc(Nc2ncnc3cc(N4CCNCC4)c(F)cc23)cc1Cl | – | – | – | – | < 20 | –
7 | C/C=C/c1ccc(Nc2ncnc3cc(N4CCOCC4)c(F)cc23)cc1 | > 100 | > 100 | > 100 | 64 | – | –
8 | CS(=O)(=O)CCNCc1ccc(-c2ccc3ncnc(Nc4ccc(OCc5cccc(F)c5)c(Cl)c4)c3c2)o1 [LAPATINIB] | – | – | 14.9 | – | – | IC50 (HCC827): 0.6 µM; inhibition (A549 [24]): Active; Activity (A549 [25]): 69.72%; Activity (A549 [26]): 22.35%; Activity (A549 [27]): 7.66%

Now from value to molecule, other results behind:

Row | IC50 (NCI-H1975) [µM] | IC50 (SW480) [µM] | IC50 (A549 [1]) [µM] | IC50 (A-431) [µM] | inhibition [2] [%] | Structure (SMILES) | other results
9 | – | – | – | – | < 20 | CCN(CC)CCN1CCN(c2cc3ncnc(Nc4ccc(F)c(Cl)c4)c3cc2F)CC1 | –
10 | – | – | – | – | < 20 | C/C=C/c1ccc(Nc2ncnc3cc(N4CCN(CCN(CC)CC)CC4)c(F)cc23)cc1 | –
11 | > 100 | > 100 | > 100 | 85.6 | – | Fc1ccc(Nc2ncnc3cc(N4CCOCC4)c(F)cc23)cc1Cl | –
12 | – | – | – | – | < 20 | Fc1cccc(COc2ccc(Nc3ncnc4cc(N5CCNCC5)c(F)cc34)cc2Cl)c1 | inhibition [10]: inactive; inhibition [11]: inactive; inhibition [12]: inactive; inhibition [13]: inactive; inhibition [14]: inactive; inhibition [15]: inactive; Drug uptake [16]: Active; Drug uptake [17]: Active; Drug uptake [18]: Active; Drug uptake [19]: Active; Drug uptake [20]: Dose-dependent effect; Drug uptake [21]: 74.03%; Drug uptake [22]: 99.95%; Drug uptake [23]: 100%
13 | – | – | – | – | < 20 | C#Cc1cccc(Nc2ncnc3cc(N4CCN(CCN(CC)CC)CC4)c(F)cc23)c1 | –
14 | > 100 | > 100 | > 100 | 49.2 | – | C/C=C/c1ccc(Nc2ncnc3cc(N4CCN(CCOC)CC4)c(F)cc23)cc1 | –
15 | > 100 | > 100 | > 100 | > 100 | – | COCCN1CCN(c2cc3ncnc(Nc4ccc(OCc5cccc(F)c5)c(Cl)c4)c3cc2F)CC1 | –
16 | – | – | – | – | > 20 | CCN(CC)CCN1CCN(c2cc3ncnc(Nc4ccc(OCc5cccc(F)c5)c(Cl)c4)c3cc2F)CC1 | –
17 | 49.8 | 16.4 | 14.4 | 12.6 | – | COCCN1CCN(c2cc3ncnc(Nc4ccc(F)c(Cl)c4)c3cc2F)CC1 | –
18 | 68.1 | 19 | 19.2 | 12.8 | – | C#Cc1cccc(Nc2ncnc3cc(N4CCN(CCOC)CC4)c(F)cc23)c1 | –
